Like-named read-outs stand apart in the source and are kept apart here.
Assays:
[1] = system: H-1299 cells; test: TUNEL apoptosis assay (Part 2); type: cell-based, human; conditions: H-1299, 20 or 40 μM, 24 hours
[2] = system: HCT-116 cells; test: Measurement of reactive oxygen species (DCFH-DA); type: cell-based, human; conditions: HCT-116, 40 μM, after two hours
Excerpt: The assay employed the cell-permeable fluorogenic probe 2′,7′-dichlorodihydrofluorescin diacetate [DCFH-DA] (Sigma Aldrich, St. […] In brief, DCFH-DA is diffused into cells and is deacetylated by cellular esterases to non-fluorescent 2′,7′-dichlorodihydrofluorescin (DCFH), which is rapidly oxidized to highly fluorescent 2′,7′-dichlorodihydrofluorescein (DCF) by intracellular hydrogen peroxide, or other low molecular weight peroxides. Measured fluorescence intensity is thus proportional to the amount of such peroxides in the cell at a given time. Human colon cancer cells HCT-116 or HT-29 were seeded in 96-well black-sided, clear-bottomed culture plates, with 5000 cells/well and were allowed to adhere for 24 hours in a 37° C. incubator with 5% CO2. […] After desired incubation times of 0, 2, 4, 8, or 24 hours, media and test compounds were aspirated. Cells were washed three times with 200 μL PBS before addition of 100 μL 1 mM DCF-DA. The fluorogenic probe permeated cell membranes and was processed to DCF for one hour at 37° C. After incubation, plates were immediately placed in a Biotek microplate reader to measure fluorescence at wavelengths of 485 (excitation) and 528 (emission). Raw values were normalized to DMSO control for each time point and are presented as fold induction versus 0 hour time point (n=3).

[3] = system: HCT-116 colon cancer cells; test: Apoptosis by FACS analysis of propidium iodide-stained cells; type: cell-based, human; conditions: HCT-116, 40 μM, 24 hours
Experimental: Apoptosis was determined by FACS analysis of propidium iodide (PI)-stained cells. In brief, cells were trypsinized, washed with cold phosphate-buffered saline (PBS), fixed in ice-cold 70% ethanol for 1 hour, and then resuspended in 2 mL PBS supplemented with 10 μL RNase (100 mg/ml) and incubated at 37° C. for 30 min. After incubation, DNA was stained with 1 mg/mL PI in PBS. Cell staining was analyzed using a Cell Lab Quanta™ SC flow cytometer (Beckman Coulter, Danvers, Mass.) and data were processed using FCS Express software (DeNovo Software, Los Angeles, Calif.). The percentage of apoptotic cells in each sample was determined based on the sub G0 peaks detected in monoparametric histograms.

[4] = system: human lung cancer cells H-1299; test: MTT growth inhibition by M14 and M15 (Part 3); type: cell-based; conditions: H-1299, 24 hours, 0 to 80 μM; read-out: IC50 (cell viability, MTT)
Experimental: (§1) Cell growth inhibition was determined by a MTT colorimetric assay. […] The reading reflected the number of viable cells and was expressed as a percentage of viable cells in the control. Both HCT-116 and H-1299 cells were cultured in McCoy's 5A medium. All of the above media were supplemented with 10% fetal bovine serum, 1% penicillin/streptomycin, and 1% glutamine, and the cells were kept in a 37° C. incubator with 95% humidity and 5% CO2.

[5] = system: human colon cancer cells HCT-116; test: MTT growth inhibition by M14 and M15 (Part 3); type: cell-based; conditions: HCT-116, 24 hours, 0 to 80 μM; read-out: IC50 (cell viability, MTT)
Experimental: as §1

[6] = Kinetic study of [6]-shogaol metabolism to M6 in liver microsomes; type: in vitro ADME, rat; conditions: rat liver microsomes 0.1 mg/mL, 30 min
Experimental: (§2) All incubations were performed in triplicate.

[7] = as above; type: in vitro ADME, mouse; conditions: mouse liver microsomes 0.1 mg/mL, 30 min; read-out: Km of M6 formation
Experimental: as §2

[8] = as above; conditions: human liver microsomes 0.1 mg/mL, 30 min, [6]-shogaol 7.8 to 2000 μM
Experimental: To estimate kinetic parameters of metabolism of [6]-shogoal to major product M6 in liver microsomes from human and other species, the incubation conditions were optimized to ensure that formation rate of M6 was in the linear range in relation to incubation time and protein concentration. [6]-Shogaol (7.81, 15.63, 31.25, 62.5, 125, 250, 500, 1000, and 2000 μM) was incubated with liver microsomes from mouse (MLM), rat (RLM), dog (DLM), monkey (CyLM), and human (HLM) (0.1 mg/mL each, respectively) for 30 minutes. All incubations were performed in triplicate. The apparent Km and Vmax values were calculated from analysis of experimental data according to the Michaelis-Menten equation, and the results were graphically represented (for HLM) by an Eadie-Hofstee plot. Kinetic constants were reported as the value+/−S.E. of the parameter estimate.

[9] = system: HCT-116 human colon cancer cells; test: MTT growth inhibition of human cancer cells, 24 h (Part 1); type: cell-based; conditions: HCT-116, 24 h, 0 to 80 μM
Experimental: (§3) The reading reflected the number of viable cells and was expressed as a percentage of viable cells in the control. Both HCT-116 and H-1299 cells were cultured in McCoy's 5A medium. All of the above media were supplemented with 10% fetal bovine serum, 1% penicillin/streptomycin, and 1% glutamine, and the cells were kept in a 37° C. incubator with 95% humidity and 5% CO2.

[10] = system: H-1299 human lung cancer cells; test: as above; type: cell-based; conditions: H-1299, 24 h, 0 to 80 μM
Experimental: as §3

Row | IC50 [4] | IC50 [5] | Km [7] | Km ([8]; read-out: Km of M6 formation) | IC50 [9] | IC50 [10] | Structure (SMILES) | induction of apoptosis (TUNEL) versus DMSO [1] | ROS induction [2] | apoptotic cells (FACS, PI) [3] | Vmax of M6 formation [6] | Vmax of M6 formation [8]
1 |  |  |  |  |  |  | CCCCCC(CC(=O)CCc1ccc(O)c(OC)c1)SC[C@H](N)C(=O)O (some centres unmarked) [M2, 5-cysteinyl-[6]-shogaol] | Apoptosis was observed | greater than 2 fold | 26.34% |  | 
2 | 17.3 µM | 19.9 µM | 75.7 µM | 45.6 µM | 18.7 µM | 16.9 µM | CCCCC/C=C/C(=O)CCc1ccc(O)c(OC)c1 [[6]-shogaol, reference compound] |  |  |  | 8.19+/−0.48 nanomoles per minute per milli | 10.82+/−0.47 nanomoles per minute per milli

From patent publication US9549911B2, “Ginger metabolites and uses thereof” (North Carolina A&T State University, priority 2012, dated 2017)
